Publication PMC8845285, “Serotoninergic receptor ligands improve Tamoxifen effectiveness on breast cancer cells” (BMC Cancer, 2022)
Read-outs that look alike come from different tables or passages of the source.

Assays:
Type in all cases: cell-based, human
MCF7 cells [1] = experiment: MCF7 cell viability, sulforhodamine B assay; conditions: for IC50: Homo sapiens, MCF7
Method: (§1) MCF7 (ER^+, PR^+, HER2^−), SKBR3 (ER^−, PR^+, HER2^+) and MDA-MB231 (ER^−, PR^−, HER2^−) human BC cells and MCF10A non-cancer breast epithelial cells were available in our laboratory. MCF7, SKBR3 and MDA-MB231 cells were cultured in DMEM, supplemented with 10% FBS, 2 mM glutamine, 100 units/ml penicillin and 100 units/ml streptomycin. MCF10A cells were cultured in MEBM, supplemented with 0.4% BPE, 0.1% hEGF, 0.1%, Insulin, 0.1% Hydrocortisone and 0.1% GA-1000. […] Treatment with SER were carried out in culture conditions. Treatment with Tamoxifen and/or SER were carried out upon 48 h estrogen starvation in phenol-red free medium supplemented with 10% Charcoal Stripped (C/S) FBS, 2 mM glutamine, 100 units/ml penicillin and 100 units/ml streptomycin.
(§2) Cells were fixed with 50% trichloroacetic acid for at least 2 h at 4 °C, washed with distilled and de-ionized water, air-dryed and stained 30 min with 0.4% sulforhodamine B in 1% acetic acid. Unbound dye was removed and 10 mM tris-HCl solution (pH 7.5) was added to dissolve the protein-bound dye. Cell survival was assessed by optical density determination at 510 nm using a microplate reader.
After 48 and 72 h, cell viability was assessed by sulforhodamine B assay (see Methods).

SKBR3 cells = experiment: SKBR3 cell viability, sulforhodamine B assay; conditions: for IC50: Homo sapiens, SK-BR-3, 72 h treatment
Method: as §1, §2
Fig. 3 Effect of SER on SKBR3 cell viability. […] Cell viability was assessed, after 72 h, by sulforhodamine B assay (see Methods).

MDA-MB231 cells = experiment: MDA-MB231 cell viability, sulforhodamine B assay; conditions: for inhibition of MDA-MB231 cell growth: 100 μM, 72 h; for IC50: Homo sapiens, MDA-MB-231, 72 h treatment
Method: as §1, §2
Cell viability was assessed, after 72 h, by sulforhodamine B assay (see Methods).

MCF7 cells [2] = experiment: MCF7 responsiveness to Tamoxifen in presence of SER, sulforhodamine B assay; conditions: Tamoxifen 5 μM, E2 100 nM, 72 h, estrogen-starved MCF7
Method: as §1, §2
After 72 h, cell cycle was assessed by Propidium Iodide staining (see Methods). […] As positive control, the cells were treated with E2 and SER alone (without Tamoxifen, dotted line). After 72 h, cell viability was assessed by sulforhodamine B assay (see Methods). […] After 72 h, mRNA levels of CTGF were determined by qPCR (see Methods and Table 1). Data were normalized on Ribosomal Protein S23 (Rps23) gene as internal standard and were reported as CTGF mRNA levels in MCF7 treated with SER relative to those in untreated cells (dotted line). a-c Data represent the mean ± SD of at least three independent triplicate experiments. * denotes statistically significant values compared with (a) percentage of untreated cells in G0/G1, S and G2/M cell cycle phase (*pval<0.05,**pval<0.01), (b) positive control (*adjp<0.05,**adjp <0.01,***adjp<0.001), (c) untreated cells (pval<0.05); # denotes statistically significant values compared with cells treated with Tamoxifen in absence of SER (#pval<0.05)
Fig. 7 Effect of low doses of SER79 and SER68 on MCF7 and MCF10A cells. a Estrogen-starved MCF7 cells (48 h) were treated with Tamoxifen (5 μM) in presence of E2 (100nM) and SER79 (5 μM) or SER68 (20 μM, 5 μM). As positive control, the cells were treated with E2 and SER alone (without Tamoxifen, dotted line). After 72 h, cell viability was assessed by sulforhodamine B assay (see Methods). […] After 72 h, mRNA levels of CTGF were determined by qPCR (see Methods and Table 1). Data were normalized on Ribosomal Protein S23 (Rps23) gene as internal standard. Bars represent CTGF mRNA levels in MCF7 treated with SER relative to those in untreated cells (dotted line). c MCF10A non-cancer breast epithelial cells were treated with SER79 (5 μM) or SER68 (20 μM). After 72 h, cell viability was assessed by sulforhodamine B assay (see Methods).

[3] = test system: Tamoxifen-cultured MCF7 cells; experiment: Tamoxifen-cultured MCF7 cell viability, sulforhodamine B assay; conditions: E2 100 nM, 72 h; for further reduction of viability elicited by Tamoxifen in presence of SER: Tamoxifen 5 μM, Tamoxifen-cultured MCF7
Method: as §2
To further investigate the effect of SER79 and SER68 on Tamoxifen responsiveness and CTGF expression in MCF7 cells, we obtained - by a continuous treatment of 10 days with 1 μM Tamoxifen – a cellular model less sensitive to the drug (Tamoxifen-cultured MCF7). We observed that 20 μM SER79, 20 μM and 40 μM SER68, while not 5 μM SER79, reduced viability of Tamoxifen-cultured MCF7 cells by about 40% (adjp<0.01; Fig. 8a). […] However, in the presence of 20 μM SER79, 20 μM and 40 μM SER68, Tamoxifen elicited a further 40% reduction of viability, similar to that achieved in Tamoxifen-responsive MCF7 cells (adjp<0.01; Fig. 8b).
Fig. 8 Effect of SER79 and SER68 on Tamoxifen-cultured MCF7 cells. MCF7 cells were cultured in presence of Tamoxifen (1 μM) for 10 days. Estrogen-starved MCF7 and Tamoxifen-cultured MCF7 cells (48 h) were (a-c) treated with SER79 (20 μM, 5 μM) or SER68 (40 μ, 20 μM), (b) treated with Tamoxifen (5 μM) in presence of SER79 (20 μM, 5 μM) or SER68 (40 μM, 20 μM). All treatments were carried out in presence of E2 (100 nM) for 72 h. As positive control, the cells were treated with (a-c) E2 alone or (b) E2 in absence or in presence of SER (as indicated, dotted line). a,b Cell viability was assessed by sulforhodamine B assay (see Methods). The results were reported as percentage of viable cells compared to positive control, considered as maximum viability (100%). c mRNA levels of CTGF were determined by qPCR (see Methods and Table 1). Data were normalized on Ribosomal Protein S23 (Rps23) gene as internal standard and reported as CTGF mRNA levels in Tamoxifen-cultured MCF7 relative to those in MCF7 cells (dotted line). a-c Graphs represent the mean ± SD of at least three independent triplicate experiments. * denotes statistically significant values compared with (a,b) positive control (*adjp<0.05, ** adjp<0.01) or (c) MCF7 cells (*pval<0.05); # denotes statistically significant values compared with (b) cells treated with Tamoxifen in absence of SER or (c) untreated Tamoxifen-cultured MCF7 cells (#pval<0.01, ##pval<0.0001)

[4] = 48 h treatment, read-out: IC50 MCF7 48h
[5] = 72 h treatment, read-out: IC50 MCF7

| Compound | IC50 (MCF7 cells [1]; [4]) | IC50 (MCF7 cells [1]; [5]) | IC50 (SKBR3 cells) | inhibition of MDA-MB231 cell growth (MDA-MB231 cells) | IC50 (MDA-MB231 cells) | further decrease of cell viability compared with Tamoxifen alone (MCF7 cells [2]; SER 5 μM) | further decrease of cell viability compared with Tamoxifen alone (MCF7 cells [2]; SER 20 μM) | further decrease of cell viability compared with Tamoxifen alone (MCF7 cells [2]; SER at IC50 dose) | reduction of viability of Tamoxifen-cultured MCF7 cells ([3]; SER 20 μM alone) | further reduction of viability elicited by Tamoxifen in presence of SER ([3]; SER 20 μM) | reduction of viability of Tamoxifen-cultured MCF7 cells ([3]; SER 40 μM alone) | further reduction of viability elicited by Tamoxifen in presence of SER ([3]; SER 40 μM) | reduction of MCF7 cell viability (MCF7 cells [1]; 50 μM, 72 h) | reduction of SKBR3 cell viability (SKBR3 cells; 50 μM, 72 h) | further reduction of viability elicited by Tamoxifen in presence of SER ([3]; SER 5 μM) |
| --- | --- | --- | --- | --- | --- | --- | --- | --- | --- | --- | --- | --- | --- | --- | --- |
| O=C1C2C3C=CC(C3)C2C(=O)N1OCCN1CCN(c2ccc(Cl)c(Cl)c2)CC1 (stereo not drawn) [SER68] | 131 ± 13.8 µM | 54.2 ± 10.2 µM | 260 ± 94.9 µM | able to inhibit | 171 ± 37.3 µM | No further effect | ≈ 20% | ≈ 30% | about 40% | 40% | about 40% | 40% | – | – | – |
| N#CN=C(NCCCN1CCN(C(c2ccc(F)cc2)c2ccc(F)cc2)CC1)c1ccccn1 [SER79] | 85.1 ± 13.4 µM | 24.1 µM | 53.6 ± 10.4 µM | able to inhibit | 117 µM | ≈ 15% | – | ≈ 15% | about 40% | 40% | – | – | ≈ 70% | ≈ 50% | No Tamoxifen effect was observed |
